Experimental data as given in US20100322979A1, “Peptidomimetic Resorbable Peptide-Polymer Hybrid Polyester Nanoparticles” (UNIVERSITY OF SOUTH CAROLINA, priority 2009, published 2010).
Like-named read-outs stand apart in the source and are kept apart here. Ends that are not written are not given here.

What was measured:
mouse breast cancer MTCL = assay: In vivo effect of the NPs on host toxicity and anti-tumor efficacy; conditions: tail vein injection; Dox 6 mg/kg of body weight where present
Method: In accordance with the present disclosure, a mouse breast cancer MTCL grown under the back skin of syngeneic C3H mice was utilized. When the tumor size reached 300 mm^3, mice were randomly divided into 6 groups (10 mice/group) and received one of these treatments by tail vein injection: PBS, PLAA-EO NPs, PLAA-CV6K2 NPs, Dox, Dox+PLAA-EO NPs, and Dox+PLAA-CV6K2 NPs. The injected Dox amount was 6 mg/kg of body weight. After the treatment, body weight and tumor size were measured daily and the results are shown in FIGS. 10a and 10b, respectively. […] Near-infrared (NIR) imaging was used to determine in vivo distribution of the NPs loaded with near-infrared dye IRDye 800RS Carboxylate (absorption at 786 nm). The infrared intensity in the intestinal region was at least 100 times higher than the other regions (confirmed by sacrificing the animal and directly imaging the intestinal tissue as shown in the inset of FIG. 10c).

[1] = NP morphology and size distribution by electron microscopy and dynamic light scattering; format: physicochemical; conditions: Example 2
Source text: Fumarate functionalized poly(lactide-co-glycolide) (PLGF) NPs are conjugated with CV6K2 peptide to stabilize the NPs through specific interactions between the amino acid side chains. Low molecular weight poly(lactide-co-glycolide) (LMW PLGA) are synthesized by ring opening polymerization of a mixture of lactide and glycolide monomers. PLGF was synthesized by polymerization of ULMW PLGA with fumaryl chloride (FuCl). The fumarate groups in PLGF macromer provide functionality for covalent attachment of ligands which bind with high specificity to receptors on tumor-associated cells, like the αvβ3 integrin receptor. ULMW PLGA with number-average molecular weight in the range 1-3 kDa was used in the synthesis of PLGF for highest density of unsaturated fumarate groups for ligand conjugation. […] The morphology and size distribution of the NPs were determined by SEM and dynamic light scattering, respectively. […]
Nanoparticle (NP) self-assembly and characterization: PLAF-CV6K2 or PLGF-CV6K2 macromers were dissolved in a solution of 1 mL DMF and 8 mL dimethysulfoxide (DMSO). […] The size distribution of NPs was measured by dynamic light scattering (DLS). […] At each time point, NPs size was measured with DLS. […] The fraction of mass remaining was determined by dividing the dried mass in the supernatant at time t by the initial mass at time zero.

[2] = Release kinetics of Paclitaxel from NPs in-vitro in PBS (pH 7.4); format: physicochemical
Method: Degradation and release characteristics of NPs. PLGF macromer with 100:0 lactide to glycolide ratio (PLAF) was synthesized by condensation polymerization. CV6K2 peptide was conjugated to PLAF to produce CV6K2-PLAF macromer. PLGF-PLEOF and CV6K2-PLGF NPs were produced by dialysis of the macromers in dimethylsulfoxide/dimethylformamide (DMSO/DMF) against water. Degradation of PLGF-PLEOF NPs was non-linear with incubation. […] To measure release kinetics, Paclitaxel was used as the surrogate molecule. Paclitaxel loaded NPs were prepared by dialysis. After dialysis, the NPs were dissolved in DMSO and 3 ml of acetonitrile-water mixture (50:50 v/v) was added. After 2 h, the suspension was centrifuged and the amount of Paclitaxel in the supernatant was measured by isocratic reverse-phase HPLC with a photodiode array detector at the wavelength of 227 nm. The encapsulation efficiency ranged from 70 to 56% and decreased with increasing Paclitaxel concentration. […]
Release profiles of Paclitaxel from CV6K2 NPs: NPs (6% Paclitaxel by weight of the PLAF or PLGF macromer) were prepared by dialysis. After dialysis for 24 h to self-assemble the macromers and to remove the unencapsulated Paclitaxel, encapsulation efficiency was determined by HPLC. The release kinetics of Paclitaxel from the NPs was measured in-vitro in PBS (pH 7.4) for up to 28 days. […]

HCT116 tumor cell line = assay: Tumor cell toxicity, MTT assay; format: cell-based; conditions: Homo sapiens, HCT-116, 72 h; 40 μg/ml Paclitaxel, after 3 days; read-out: cell viability (percentage of drug-free samples)
Method: Tumor cell toxicity was determined by incubating Paclitaxel drug, encapsulated in NPs, with HCT116 tumor cell line, seeded at a density of 5×10^4 cells/cm^2 and cultured in basal media (40 μg/ml Paclitaxel) for 24, 48, and 72 h. At each time point, suspension was removed, cells were washed with PBS, and viability was assessed by the MTT assay. FIG. 3(d) compares cell viability of HCT116 cells (expressed as the percentage of the values obtained from cells in the presence of drug compared to those in drug-free samples) incubated with 40 μg/ml Paclitaxel with that incubated with the same concentration encapsulated in PLGF NPs. […] Cell viability of Paclitaxel in solution after 3 days was 40% while that encapsulated in NPs was 28%. […] Toxicity of CV6K2-PLGF NPs to normal cells was assessed with bone marrow stromal (BMS) cells isolated from the bone marrow of Wistar rats. BMS cells were seeded in 24 well plates in primary media at a density of 4×10^4 cells/cm^2, incubated for 24 h for cell attachment. After cell attachment, the media was replaced with media containing […] of CV6K2-PLGF NPs and incubated for 1, 2, and 3 days. At each time point, the cells were washed with PBS to remove the free NPs, and the fraction of viable cells was measured by the MTT assay.

MCF-7 cells = assay: Binding of cyclic peptide grafted NPs to tumor cells, confocal microscopy; format: cell-based
Source text: (§1) Targeting to tumor endothelial cells by grafting cyclic c(-RGDfC-) peptide to NPs: The linear D-Phe-Cys-Arg-Gly-Asp peptide was synthesized manually using Fmoc chemistry. After peptide chain elongation, the linear peptide was cyclized directly on the peptidyl resin by coupling the carboxylate group on aspartic acid to the amine group on phenylalanine in the peptide sequence. The cyclized peptide was side-chain deprotected, cleaved from the resin, precipitated in cold ether, and purified by preparative high-performance liquid chromatography (HPLC). The cyclic peptide was characterized by Electro Spray Ionization (ESI) spectrometry For grafting, […] peptide was incubated with NPs at ambient conditions for 10 h. After grafting, the NPs were purified by dialysis against water and incubated with MCF-7 and U87MG tumor cells. After incubation, unattached NPs were removed by washing, cells were fixed, and stained with phalloidin (for cytoskeleton) and DAPI (for cell nuclei) and imaged with confocal microscopy. FIGS. 5(a) and 5(b) show the image of MCF-7 and U87MG cells, respectively. The bright dots in FIG. 5(b) and their absence in FIG. 5(a) are the FITC-stained c(-GRGfC-) peptide grafted NPs that are attached/internalized by U87MG cells that have high expression of αvβ3 integrin receptor.

[3] = test system: U87MG cells (high expression of αvβ3 integrin receptor); assay: as above; format: cell-based
Source text: as §1

## COc1cccc2c1C(=O)c1c(O)c3c(c(O)c1C2=O)C[C@@](O)(C(=O)CO)C[C@@H]3O[C@H]1C[C@H](N)[C@H](O)[C@H](C)O1 [Dox]
Mouse breast cancer MTCL
  host toxicity (body weight change): highest body weight loss

## CVVVVVVKK [CV6K2 NPs, NPs self-assembled from the CV6K2 peptide only]
[1]
  average diameter (NP size), DLS: 70 nm
[2]
  duration of Paclitaxel release: 3 days
[2]; listed as peptide
  duration of Paclitaxel release: 5 days

## CC(=O)O[C@H]1C(=O)[C@@]2(C)[C@H]([C@H](OC(=O)c3ccccc3)[C@]3(O)C[C@H](OC(=O)[C@H](O)[C@@H](NC(=O)c4ccccc4)c4ccccc4)C(C)=C1C3(C)C)[C@]1(OC(C)=O)CO[C@@H]1C[C@@H]2O [Paclitaxel]
HCT116 tumor cell line
  viability at 40 µg/mL: 40%

## c(-GRGfC-) grafted NPs: FITC-stained NPs grafted with cyclic D-Phe-Cys-Arg-Gly-Asp peptide
MCF-7 cells
  attachment/internalization of FITC-stained grafted NPs: absence
[3]
  attachment/internalization of FITC-stained grafted NPs: attached/internalized
